From patent EP0581652A1, “Pradimicins T1 and T2 and 11-0-dexylosylpradimicin T1, new members of the pradimicin family of antibiotics” (priority 1992, dated 1994)

Experiments:
[1] = test system: Aspergillus fumigatus IAM 2034; experiment: In vitro antifungal activity, agar dilution method (MIC); type: cell-based; conditions: yeast morphology agar + 1/15M phosphate buffer (pH 7.0), 10^6 cells/ml, 28°C, 40 hrs
[2] = test system: Trichophyton mentagrophytes 4329; experiment: as above; type: cell-based; conditions: yeast morphology agar + 1/15M phosphate buffer (pH 7.0), 10^7 cells/ml, 28°C, 60 hrs
[3] = Acute toxicity in mice after a single intravenous dose; type: in vivo
Experimental: (§1) Pradimicins T1 and T2 were evaluated for in vivo efficacy against a Candida albicans A9540 systemic infection in male ICR mice (20-24 g body weight) as described by Oki etal. in water-soluble pradimicin derivatives, synthesis and antifungal evaluation of N,N,-dimethyl pradimicins, J. Antibiotics 43: 1230-1235, 1990. Five mice at each dose level were challenged intravenously with ten times the 50% lethal dose of the pathogen suspended in saline. Antibiotics were intravenously administered once immediately after the fungal challenge. Infection control animals (n=10) died from 7 to 12 days. The 50% protective dose (PD50) was calculated from the survival rate 20 days after the fungal infection. The acute toxicity of pradimicins T1 and T2 was determined in mice after a single intravenous dose.

[4] = test system: Cryptococcus neoformans IAM 4514; experiment: In vitro antifungal activity, agar dilution method (MIC); type: cell-based; conditions: yeast morphology agar + 1/15M phosphate buffer (pH 7.0), 10^6 cells/ml, 28°C, 40 hrs
Candida albicans A9540 [5] = experiment: In vivo efficacy against systemic infection in mice; conditions: male ICR mice; C. albicans A9540 systemic infection; single intravenous dose immediately after challenge; survival rate 20 days after infection
Experimental: as §1

[6] = test system: Candida albicans ATCC 32354 (B311); experiment: In vitro antifungal activity, agar dilution method (MIC); type: cell-based; conditions: yeast morphology agar + 1/15M phosphate buffer (pH 7.0), 10^6 cells/ml, 28°C, 40 hrs
[7] = test system: Cryptococcus neoformans D49; experiment: as above; type: cell-based; conditions: yeast morphology agar + 1/15M phosphate buffer (pH 7.0), 10^6 cells/ml, 28°C, 40 hrs
Candida albicans A9540 [8] = experiment: as above; type: cell-based; conditions: yeast morphology agar + 1/15M phosphate buffer (pH 7.0), 10^6 cells/ml, 28°C, 40 hrs
[9] = test system: Candida albicans 83-2-14 (Juntendo); experiment: as above; type: cell-based; conditions: yeast morphology agar + 1/15M phosphate buffer (pH 7.0), 10^6 cells/ml, 28°C, 40 hrs
[10] = test system: Saccharomyces cerevisiae ATCC 9763; experiment: as above; type: cell-based; conditions: yeast morphology agar + 1/15M phosphate buffer (pH 7.0), 10^6 cells/ml, 28°C, 40 hrs

Substance: 11-O-dexylosylpradimicin T1 [11-O-Dexylosyl-pradimicin T1]
- MIC [1]: 25 μ g/ml
- MIC [2]: 12.5 μ g/ml

Substance: Pradimicin T1
- MIC [1]: 6.3 μ g/ml
- MIC [2]: 6.3 μ g/ml

Substance: Amphotericin B
- LD50 [3]: 4.5 mg/kg
- MIC [4]: 0.4 µg/mL
- MIC [1]: 0.8 μ g/ml
- PD50 (Candida albicans A9540 [5]): 0.2 mg/kg
- MIC [6]: 0.4 µg/mL
- MIC [7]: 0.4 µg/mL
- MIC (Candida albicans A9540 [8]): 0.4 µg/mL
- MIC [2]: 0.8 μ g/ml
- MIC [9]: 0.4 µg/mL
- MIC [10]: 0.4 µg/mL

Substance: Pradimicin T2
- MIC [1]: >100 μ g/ml
- MIC [2]: 50 μ g/ml
